The results in this text go back to patent publication US8067231B2 (priority 2005, dated 2011).

In this experiment the test system is Neuro-2A. Format: cell-based, mouse.

Turning to `CC1=C(/C=C/C(C)=C/C=C/C(C)=C/C(=O)O)C(C)(C)CCC1` [all trans retinoic acid, All Trans-Retinoic acid], the “BoNT/A SNAP25197-cleavage product (uptake of BoNT/A) after differentiation reagent treatment” value is “increase”.
